Reference: patent publication US20220280593A1, “METHODS FOR […] CORONARY ARTERY BYPASS GRAFT PROCEDURE” (Stealth BioTherapeutics Inc., priority 2009, published 2022)
“Also recorded” adds a separate entry of the source. Non-standard residues stand in square brackets, D forms with d. No end group written: not given here.

How the values were obtained:
[1] = system: several mammalian cell types; conditions: energy-independent manner; Zhao et al., 2003; cited from earlier work
animal model of ARI = conditions: cited from earlier work
mu-opioid receptor = conditions: cited from earlier work
wild type mice = conditions: treatment at 0, 6, 24 and 48 hours after 30 min occlusion; U.S. Patent Publication No. 20070129306; cited from earlier work
mitochondria [2] = conditions: cited from earlier work
[3] = system: New Zealand white rabbits; assay: Rabbit model of acute myocardial ischemia and reperfusion (30 min ischemia, 180 min reperfusion), infarct size by histomorphometry; type: in vivo
Method: New Zealand white rabbits were used in this study. The rabbits were males and >10 weeks in age. Environmental controls in the animal rooms were set to maintain temperatures of 61° to 72° F. and relative humidity between 30% and 70%. Room temperature and humidity were recorded hourly, and monitored daily. There were approximately 10-15 air exchanges per hour in the animal rooms. Photoperiod was 12-hr light/12-hr dark (via fluorescent lighting) with exceptions as necessary to accommodate dosing and data collection. Routine daily observations were performed. Harlan Teklad, Certified Diet (2030C), rabbit diet was provided approximately 180 grams per day from arrival to the facility. In addition, fresh fruits and vegetables were given to the rabbit 3 times a week.
The peptide D-Arg-2′6′-Dmt-Lys-Phe-NH2 (sterile lyophilized powder) was used as the test article. Dosing solutions were formulated at no more than 1 mg/ml, and were delivered via continuous infusion (IV) at a constant rate (e.g., 50 μL/kg/min). Normal saline (0.9% NaCl) was used as a control.
The test/vehicle articles were given intravenously, under general anesthesia, in order to mimic the expected route of administration in the clinical setting of AMI and PTCA. Intravenous infusion was administered via a peripheral vein using a Kd Scientific infusion pump (Holliston, MA 01746) at a constant volume (e.g., 50 μL/kg/min).
The study followed a predetermined placebo and sham controlled design. In short, 10-20 healthy, acclimatized, male rabbits were assigned to one of three study arms (approximately 2-10 animals per group). Arm A (n=10, CTRL/PLAC) includes animals treated with vehicle (vehicle; VEH, IV); Arm B (n=10, treated) includes animals treated with peptide; Arm C (n=2, SHAM) includes sham-operated time-controls treated with vehicle (vehicle; VEH, IV) or peptide.
In all cases, treatments were started approximately 10 min after the onset of a 30 min ischemic insult (coronary occlusion) and continued for up to 3 h following reperfusion. In all cases, cardiovascular function was monitored both prior to and during ischemia, as well as for up to 180 min (3 h) post-reperfusion. The experiments were terminated 3 h post-reperfusion (end of study); irreversible myocardial injury (infarct size by histomorphometery) at this time-point was evaluated, and was the primary-end-point of the study.
Following hemodynamic stabilization and baseline measurements, the animals were subjected to an acute 30 min ischemic insult by tightening of the LAD/LCX coronary artery snares. […]
Histopathology/Histomorphometery. At the completion of the protocol, irreversible myocardial injury (i.e., infarction) resulting from the I/R insult was evaluated. […]

[4] = Stability of the drug substance; type: physicochemical
Method: Study Drug. D-Arg-2′6′-Dmt-Lys-Phe-NH2 is a small peptide (CAS No. 736992-21-5). Its molecular weight is 639.8 (free base). […] The drug substance will be provided as a lyophilized powder in sterile glass vials. Each vial will be reconstituted with 10 mL of sterile D5W by the unblinded pharmacist at each site.

mitochondria [5] = conditions: cited from earlier work; remark: listed apart in the source
[6] = 45 min ischemia and 24 h reperfusion
[7] = IV continuous infusion from 10 min into 30 min ischemia through 180 min reperfusion, n = 10, p < 0.05 vs placebo

2′,6′-Dmt-D-Arg-Phe-Lys-NH2
penetration of the plasma membrane [1]: readily penetrates

D-Arg-2′,6′-Dmt-Lys-Phe-NH2
histopathological score (animal model of ARI; [6]): significantly improved | rate of ATP production after reperfusion (animal model of ARI; [6]): significantly increased | incidence of ARI caused by ischemia-reperfusion (animal model of ARI; U.S. Patent Publication No. 20090221514): effective in reducing | interstitial fibrosis, tubular apoptosis, macrophage infiltration and tubular proliferation (animal model of ARI; animal model of ARI): effective in reducing | mu-opioid receptor agonist activity (mu-opioid receptor): does not have mu-opioid receptor agonist activity | hemispheric swelling compared to saline controls (wild type mice): significant reduction | infarct volume compared to saline controls (wild type mice): significant reduction | adenosine triphosphate (ATP) levels (mitochondria [2]): maintaining | electron transfer within the mitochondrial electron transport chain (mitochondria [2]): facilitating | loss of mitochondrial membrane potential (mitochondria [2]): preventing | mitochondrial respiration (oxygen consumption) (mitochondria [2]): maintaining | mitochondrial swelling (mPTP opening) (mitochondria [2]): preventing | reactive oxygen species (ROS) (mitochondria [2]): scavenging | release of cytochrome c (mitochondria [2]): preventing | myocardial infarct size compared to the control ([3]; 30 min ischemia, infusion continued 180 min after reperfusion, listed as peptide): decreased infarct size; also recorded: able to reduce myocardial infarct size | Myocardial Area IA/AR (infarcted area / area at risk) [3, 7]: 24.7 ± 4.7% | Myocardial Area IA/LV (infarcted area / left ventricular area) [3, 7]: 16.2 ± 3.4% | myocardial salvage ([3]; treatment for less than 3 hours after reperfusion, i.e., 30 min, data not shown): comparable myocardial salvage | resistance to oxidation [4]: resistant to oxidation | temperature up to which stable [4]: up to 40 °C | stability to light ([4]; powder or liquid form): stable to light | concentration in the mitochondrial pellet relative to extracellular fluid (mitochondria [5]): approximately 5000 fold | intracellular concentration relative to extracellular fluid (mitochondria [5]): six

F[dR]FK-NH2
mu-opioid receptor agonist activity (mu-opioid receptor): does not have mu-opioid receptor agonist activity

Tyr-D-Arg-Phe-Lys-NH2
mu-opioid receptor agonist activity (mu-opioid receptor): has mu-opioid receptor agonist activity
